Experimental findings from patent US20260042755A1, “GPR6 INVERSE AGONISTS” (MapLight Therapeutics, Inc., priority 2022, published 2026) are described below.

pIC50: −log10 of the molar value. A value given as a limit tells only on which side of the number the result lay.

One assay deals with T1, GPR6 (Homo sapiens, UniProt P46095).
T1 construct: expressed in transfected cells; host or cells: CHO cells
Nature of the assay: GPR6 antagonist functional cAMP assay (LANCE Ultra cAMP TR-FRET, CHO cells stably expressing GPR6). The format is cell-based. The procedure: (§1) Example 56. GPR6 and GPR3 Antagonist Functional cAMP Assay
(§2) CHO cells stably expressing GPR6 or GPR3 receptors were dissociated from cell culture flasks and incubated for 2 h at 37° C. in a 10 cm dish in a humidified incubator. Cells were dissociated, counted to have 1e6 cells/mL (4.5e6 cells needed/384-well plate), washed once in starved media, than in D-PBS and finally suspended in assay buffer (Krebs-Ringer Bicarbonate Buffer with 1800 mg/L glucose, without calcium chloride and sodium bicarbonate (Sigma) in the presence of 0.1% BSA and 150 μM of Ro 20-1724 Phosphodiesterase inhibitor).
(§3) Cells in suspension from above were plated in 384-well white Optiplate (PerkinElmer) at 10,000 cells/well/10 μl, briefly centrifuged prior direct addition of compounds ([…]) in 10 mM DMSO using a Tecan D300e Digital Dispenser, final DMSO in each well was normalized to 0.1%. Cells were incubated in the presence of compounds for 45 min at 37° C. in a humidified incubator.
(§4) To measure cAMP levels, LANCE® Ultra cAMP assay (Perkin Elmer), a homogeneous time-resolved fluorescence resonance energy transfer (TR-FRET) immunoassay was used following manufacturer's recommendations. Plates were shaken for 1 h at room temperature before reading on a Tecan InfiniteF200Pro multi-mode plate reader using standard FRET settings (Excitation 340 nm, Emission at 615 nm). FRET values were reported as readings obtained at 665 nm. Data were normalized to DMSO (0.1%) and reference compounds (100%) and fit to a 4-parameter logistical fit to generate antagonist IC50s.
(In general: Cyclic AMP is a second messenger, typically raised through Gs and lowered through Gi signalling.)

The target of the next assay is T2, GPR3 (Homo sapiens, UniProt P46089).
T2 construct: expressed in transfected cells; host or cells: CHO cells
T2 sequence (P46089 whole entry, species assumed): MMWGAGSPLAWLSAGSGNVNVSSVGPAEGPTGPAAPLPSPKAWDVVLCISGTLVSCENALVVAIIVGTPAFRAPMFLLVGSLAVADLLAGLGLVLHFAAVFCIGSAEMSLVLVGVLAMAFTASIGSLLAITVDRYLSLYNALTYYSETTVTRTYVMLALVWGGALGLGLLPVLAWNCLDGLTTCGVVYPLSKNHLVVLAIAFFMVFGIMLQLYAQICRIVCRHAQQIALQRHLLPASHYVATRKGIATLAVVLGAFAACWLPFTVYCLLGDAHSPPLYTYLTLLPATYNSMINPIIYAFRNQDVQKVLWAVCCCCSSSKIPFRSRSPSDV
The assay is described as follows: GPR3 antagonist functional cAMP assay (LANCE Ultra cAMP TR-FRET, CHO cells stably expressing GPR3). Format: cell-based. Here is the method:
as §1, §2, §3, §4

[1] abbreviates: CHO cells stably expressing GPR6, cAMP assay (Example 24).
The mark [2] stands for this setting: CHO cells stably expressing GPR3, cAMP assay (Example 24).
The mark [3] stands for this setting: procedure as described in Example 24.

T1 sequence (P46095 whole entry): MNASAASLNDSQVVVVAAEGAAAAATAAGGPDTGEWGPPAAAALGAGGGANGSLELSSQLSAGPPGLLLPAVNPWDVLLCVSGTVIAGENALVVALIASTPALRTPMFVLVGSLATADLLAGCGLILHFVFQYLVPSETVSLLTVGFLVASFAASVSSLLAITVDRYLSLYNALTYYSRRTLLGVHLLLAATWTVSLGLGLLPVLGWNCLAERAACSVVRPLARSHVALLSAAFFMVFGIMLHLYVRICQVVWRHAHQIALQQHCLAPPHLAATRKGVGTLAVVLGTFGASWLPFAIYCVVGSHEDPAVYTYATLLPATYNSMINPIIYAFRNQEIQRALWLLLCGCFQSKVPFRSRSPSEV

As to “1-(3-{6-acetyl-2-[4-(2,4- difluorophenoxy)piperidin- 1-yl]-5H,6H,7H,8H- pyrido[3,4-b]pyrazin-3- yl}-4H,5H,6H,7H- pyrazolo[1,5-a]pyrazin-5- yl)ethan-1-one [Compound 106]”, the pIC50 against GPR6 (setting [1]) and on GPR3 (setting [2]) was 4.52 to 6.00 in each case.
With “1-[3-(1-methyl-4-pyrazolyl)-2-{4- [(o-nitrophenyl)methyl]-1- piperazinyl}-5,6,7,8-tetrahydro- 1,4,6-triaza-6-naphthyl]-1- ethanone [Compound 527]”, the pIC50 (as a rule, −log10 of the IC50, conventionally taken in molar units) was 6.00 to 7.00 against GPR6 (CHO cells stably expressing GPR6, cAMP assay) and 4.52 to 6.00 on GPR3 (CHO cells stably expressing GPR3, cAMP assay).
As for `CC(C)(O)C(O)c1ncc2nc(-c3cnn(CF)c3)c(N3CCN(Cc4ccc(F)cc4F)CC3)nc2c1F` (racemic) [Compound 797, 1-(2-{4-[(2,4-difluorophenyl)methyl]-1-piperazinyl}-8-fluoro-3-[1-(fluoromethyl)-4-pyrazolyl]-1,4,6-triaza-7-naphthyl)-2-methyl-1,2-propanediol], the values for the pIC50 against GPR6 (procedure of Example 24) and on GPR3 (procedure of Example 24) were 6.00 to 7.00 and 4.52 to 6.00, respectively.
As to `CC1CN(Cc2ccc(F)cc2F)CCN1c1nc2ccncc2nc1-c1cn[nH]c1` (single isomer, unassigned) [Compound 45, 4-[(2,4-difluorophenyl)methyl]-2-methyl-1-[3-(1H-pyrazol-4-yl)pyrido[3,4-b]pyrazin-2-yl]piperazine], the pIC50 against GPR6 (setting [3]) and on GPR3 (setting [3]) was 4.52 to 6.00 in each case.
Turning to `CC1CN(c2nc3ccncc3nc2-c2cn[nH]c2)CCN1Cc1ccc(F)cc1F` (single isomer, unassigned) [Compound 49, 2-(4-(2,4-difluorobenzyl)-3-methylpiperazin-1-yl)-3-(1H-pyrazol-4-yl)pyrido[3,4-b]pyrazine], the pIC50 against GPR6 (setting [3]) and against GPR3 (setting [3]) was 4.52 to 6.00 each time.
For the compound `COCC1CN(c2nc3ccncc3nc2-c2cn[nH]c2)CCN1Cc1ccc(F)cc1F` (single isomer, unassigned) [Compound 89, 2-(4-(2,4-difluorobenzyl)-3-(methoxymethyl)piperazin-1-yl)-3-(1H-pyrazol-4-yl)pyrido[3,4-b]pyrazine], the pIC50 on GPR6 (setting [1]) and against GPR3 (setting [2]) was 4.52 to 6.00 each time.
In the case of `OCC1CN(c2nc3ccncc3nc2-c2cn[nH]c2)CCN1Cc1ccc(F)cc1F` (single isomer, unassigned) [Compound 93, (4-(3-(1H-pyrazol-4-yl)pyrido[3,4-b]pyrazin-2-yl)-1-(2,4-difluorobenzyl)piperazin-2-yl)methanol], the pIC50 against GPR6 (setting [1]) was 4.52 to 6.00; against GPR3 (setting [2]), not above 4.52.
On to `COc1cncc(-c2nc3cnc(C(O)C(C)(C)O)cc3nc2N2CCN(Cc3ccc(F)cc3F)CC2)n1` (single isomer, unassigned) [Compound 94, 1-(2-(4-(2,4-difluorobenzyl)piperazin-1-yl)-3-(6-methoxypyrazin-2-yl)pyrido[3,4-b]pyrazin-7-yl)-2-methylpropane-1,2-diol], for which the pIC50 at GPR6 (setting [1]) and at GPR3 (setting [2]) was 4.52 to 6.00 each time.
Turning to `C[C@@H]1CN(Cc2ccc(F)cc2F)CCN1c1nc2ccncc2nc1-c1cnn(C)c1` (single isomer, unassigned) [Compound 224], the pIC50 at GPR6 (setting [1]) and against GPR3 (setting [2]) was 4.52 to 6.00 throughout.
For `C[C@H]1CN(Cc2ccc(F)cc2F)CCN1c1nc2ccncc2nc1-c1cnn(C)c1` (single isomer, unassigned) [Compound 225], the figures for the pIC50 on GPR6 (setting [1]) and against GPR3 (setting [2]) were 6.00 to 7.00 and 4.52 to 6.00, respectively.
The like results for `CC(=O)N1CCc2nc(N3CCN(Cc4ccc(F)cc4F)C[C@H]3C)c(-c3cnn(C)c3)nc2C1` (single isomer, unassigned) [Compound 231] were, in that order, 4.52 to 6.00 and 4.52 to 6.00.
Regarding `CC(=O)N1CCc2nc(N3CCN(Cc4ccc(F)cc4F)C[C@@H]3C)c(-c3cnn(C)c3)nc2C1` (single isomer, unassigned) [Compound 232], the pIC50 at GPR6 (setting [1]) and against GPR3 (setting [2]) was 4.52 to 6.00 throughout.
As for `COC[C@H]1CN(Cc2ccc(F)cc2F)CCN1c1nc2ccncc2nc1-c1cnn(C)c1` (single isomer, unassigned) [Compound 238], the pIC50 on GPR6 (setting [1]) and against GPR3 (setting [2]) was 4.52 to 6.00 in each case.
As to `COC[C@@H]1CN(Cc2ccc(F)cc2F)CCN1c1nc2ccncc2nc1-c1cnn(C)c1` (single isomer, unassigned) [Compound 240], the pIC50 on GPR6 (setting [1]) and against GPR3 (setting [2]) was 4.52 to 6.00 throughout.
As for `COC[C@@H]1CN(Cc2ccc(F)cc2F)CCN1c1nc2c(nc1-c1cnn(C)c1)CN(C(C)=O)CC2` (single isomer, unassigned) [Compound 244], the pIC50 against GPR6 (setting [1]) and at GPR3 (setting [2]) was 4.52 to 6.00 in each case.
As for `COC[C@H]1CN(Cc2ccc(F)cc2F)CCN1c1nc2c(nc1-c1cnn(C)c1)CN(C(C)=O)CC2` (single isomer, unassigned) [Compound 249], the pIC50 against GPR6 (setting [1]) and against GPR3 (setting [2]) was 4.52 to 6.00 each time.
Turning to `Cn1cc(-c2nc3cnc([C@@H](O)C(C)(C)O)cc3nc2N2CCN(Cc3ccc(F)cc3F)CC2)cn1` (single isomer, unassigned) [Compound 261], the pIC50 on GPR6 (setting [1]) is 6.00 to 7.00; against GPR3 (setting [2]) it was 4.52 to 6.00.
As to `Cn1cc(-c2nc3cnc([C@H](O)C(C)(C)O)cc3nc2N2CCN(Cc3ccc(F)cc3F)CC2)cn1` (single isomer, unassigned) [Compound 262], the pIC50 against GPR6 (setting [1]) is 6.00 to 7.00; against GPR3 (setting [2]) it was 4.52 to 6.00.
As to `CC(=O)N1CCc2nc(N3CCC(Oc4ccc(F)cc4F)CC3)c(-c3cnn([C@@H](C)C#N)c3)nc2C1` (single isomer, unassigned) [Compound 271], the figures for the negative-log IC50 (pIC50) against GPR6 (procedure of Example 24) and on GPR3 (procedure of Example 24) were 6.00 to 7.00 and 4.52 to 6.00, respectively.
`CC(=O)N1CCc2nc(N3CCC(Oc4ccc(F)cc4F)CC3)c(-c3cnn([C@H](C)C#N)c3)nc2C1` (single isomer, unassigned) [Compound 272]: the results for the pIC50 on GPR6 (procedure of Example 24) and against GPR3 (procedure of Example 24) were 6.00 to 7.00 and 4.52 to 6.00, respectively.
With `CCn1cc(-c2nc3c(nc2N2CCC(Oc4ccc(F)cc4F)CC2)CCN(C[C@@H](O)CO)C3)cn1` (single isomer, unassigned) [Compound 290], the negative-log IC50 (pIC50) against GPR6 (procedure of Example 24) was 6.00 to 7.00; at GPR3 (procedure of Example 24) it was 4.52 to 6.00.
The matching figures for `Cn1cc(-c2nc3cnccc3nc2N2CCN(Cc3ccc(F)cc3F)C[C@H]2CO)cn1` (single isomer, unassigned) [Compound 292]: not above 4.52 and 4.52 to 6.00.
Turning to `CC(=O)N1CCc2nc(N3CC[C@H](Oc4ccc(F)cc4F)[C@@H](F)C3)c(-c3cnn(C)c3)nc2C1` (single isomer, unassigned) [Compound 331], the pIC50 against GPR6 (procedure of Example 24) and against GPR3 (procedure of Example 24) was 4.52 to 6.00 in each case.
As to `Cn1cc(-c2nc3cnccc3nc2N2CC[C@H](Oc3ccc(F)cc3F)[C@H](F)C2)cn1` (single isomer, unassigned) [Compound 332], the negative-log IC50 (pIC50) on GPR6 (procedure of Example 24) and against GPR3 (procedure of Example 24) was 4.52 to 6.00 throughout.
Turning to `Cn1cc(-c2nc3c(nc2N2CC[C@H](Oc4ccc(F)cc4F)[C@H](F)C2)CCN(Cc2ccccc2)C3)cn1` (single isomer, unassigned) [Compound 333], the pIC50 was 4.52 to 6.00 against GPR6 (procedure of Example 24) and not above 4.52 against GPR3 (procedure of Example 24).
Take `CC(=O)N1CCc2nc(N3CC[C@H](Oc4ccc(F)cc4F)[C@H](F)C3)c(-c3cnn(C)c3)nc2C1` (single isomer, unassigned) [Compound 334]: the pIC50 at GPR6 (procedure of Example 24) and against GPR3 (procedure of Example 24) was 4.52 to 6.00 each time.
As to `Cn1cc(-c2nc3cnc([C@H](O)C(C)(C)O)cc3nc2N2CCC(Oc3ccc(F)cc3F)CC2)cn1` (single isomer, unassigned) [Compound 378, (Rel-S)-1-(2-(4-(2,4-difluorophenoxy)piperidin-1-yl)-3-(1-methyl-1H-pyrazol-4-yl)pyrido[3,4-b]pyrazin-7-yl)-2-methylpropane-1,2-diol], the figures for the pIC50 against GPR6 (setting [1]) and against GPR3 (setting [2]) were 6.00 to 7.00 and 4.52 to 6.00, respectively.
Turning to `Cn1cc(-c2nc3cnc([C@@H](O)C(C)(C)O)cc3nc2N2CCC(Oc3ccc(F)cc3F)CC2)cn1` (single isomer, unassigned) [Compound 379, (Rel-R)-1-(2-(4-(2,4-difluorophenoxy)piperidin-1-yl)-3-(1-methyl-1H-pyrazol-4-yl)pyrido[3,4-b]pyrazin-7-yl)-2-methylpropane-1,2-diol], the pIC50 was 6.00 to 7.00 against GPR6 (setting [1]) and 4.52 to 6.00 at GPR3 (setting [2]).
With `CC(C)(O)[C@H](O)c1cc2nc(N3CCN(Cc4ccc(F)cc4F)CC3)c(-c3cnn(C(F)F)c3)nc2cn1` (single isomer, unassigned) [Compound 396], the values for the pIC50 on GPR6 (setting [1]) and against GPR3 (setting [2]) were 6.00 to 7.00 and 4.52 to 6.00, respectively.
Consider `CC(C)(O)[C@@H](O)c1cc2nc(N3CCN(Cc4ccc(F)cc4F)CC3)c(-c3cnn(C(F)F)c3)nc2cn1` (single isomer, unassigned) [Compound 397], for which the results for the pIC50 on GPR6 (setting [1]) and against GPR3 (setting [2]) were more than 7.00 and 4.52 to 6.00, respectively.
`COc1nc(-c2nc3c(nc2N2CCC(Oc4ccc(F)cc4F)CC2)CCN(C(C)=O)C3)ccc1F` [Compound 83, 1-{2-[4-(2,4-difluorophenoxy)piperidin-1-yl]-3-(5-fluoro-6-methoxypyridin-2-yl)-5H,6H,7H,8H-pyrido[3,4-b]pyrazin-6-yl}ethan-1-one] had a pIC50 at GPR3 (setting [2]) of 4.52 to 6.00.
